44 compounds from ChEMBL document CHEMBL3588835, “Discovery of a new chemical series of BRD4(1) inhibitors using protein-ligand docking and structure-guided design” (Bioorg Med Chem Lett, 2015) can be followed below.

The target in experiment [1] is T1, Bromodomain-containing protein 4 (Homo sapiens, UniProt O60885). As to the kind of experiment: Inhibition of HTRF binding to N-terminal His-tagged BRD4(1) (unknown origin) using biotinylated tetra-acetylated histone H4 peptide and Cryptate-labeled streptavidin incubated for 2 hrs by TR-FRET assay. For orientation: Time-resolved FRET reads energy transfer from a long-lived donor to a nearby acceptor.

The target of experiment [2] is T2, Bromodomain-containing protein 2 (Homo sapiens, UniProt P25440). The experiment can be described thus: Inhibition of HTRF binding to N-terminal His-tagged BRD2(2) (unknown origin) at 50 uM using biotinylated tetra-acetylated histone H4 peptide and Cryptate-labeled streptavidin incubated for 2 hrs by TR-FRET assay.
Target sequence in this assay (P25440 whole entry, looked up): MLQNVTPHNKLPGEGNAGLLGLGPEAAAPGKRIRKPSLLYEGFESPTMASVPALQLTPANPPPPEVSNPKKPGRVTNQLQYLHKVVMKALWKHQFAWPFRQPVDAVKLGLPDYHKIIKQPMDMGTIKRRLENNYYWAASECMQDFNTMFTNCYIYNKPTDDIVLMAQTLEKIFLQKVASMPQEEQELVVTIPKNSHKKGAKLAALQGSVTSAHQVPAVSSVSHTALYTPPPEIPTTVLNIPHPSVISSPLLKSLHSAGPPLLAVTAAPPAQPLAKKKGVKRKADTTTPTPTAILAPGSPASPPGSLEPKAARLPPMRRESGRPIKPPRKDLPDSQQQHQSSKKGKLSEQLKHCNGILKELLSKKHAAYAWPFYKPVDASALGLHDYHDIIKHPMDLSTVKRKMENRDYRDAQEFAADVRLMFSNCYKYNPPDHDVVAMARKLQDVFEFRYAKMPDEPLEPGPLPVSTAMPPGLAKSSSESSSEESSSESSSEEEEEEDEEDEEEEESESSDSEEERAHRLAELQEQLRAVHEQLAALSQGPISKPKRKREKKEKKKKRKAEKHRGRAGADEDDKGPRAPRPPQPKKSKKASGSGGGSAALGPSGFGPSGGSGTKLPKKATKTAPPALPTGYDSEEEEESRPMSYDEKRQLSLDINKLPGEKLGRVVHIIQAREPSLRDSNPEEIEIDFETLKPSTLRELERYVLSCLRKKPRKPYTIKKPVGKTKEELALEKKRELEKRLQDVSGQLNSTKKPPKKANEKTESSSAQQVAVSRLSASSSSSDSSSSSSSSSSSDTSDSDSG
Experiment [3] has as its target T1, Bromodomain-containing protein 4. The experiment can be described thus: Inhibition of HTRF binding to N-terminal His-tagged BRD4(1) (unknown origin) at 50 uM using biotinylated tetra-acetylated histone H4 peptide and Cryptate-labeled streptavidin incubated for 2 hrs by TR-FRET assay.
For experiment [4], the target named is T2, Bromodomain-containing protein 2. The experiment can be described thus: Inhibition of HTRF binding to N-terminal His-tagged BRD2(2) (unknown origin) using biotinylated tetra-acetylated histone H4 peptide and Cryptate-labeled streptavidin incubated for 2 hrs by TR-FRET assay.
Target sequence in this assay (P25440 whole entry): as the sequence (P25440 whole entry, looked up) above

The IC50 is the concentration that inhibits the measured activity by half. Compound `O=C1CN(C(=O)c2cc(O)cc(-c3ccccc3)c2)c2ccccc2N1` displayed an IC50 in experiment [1] of 9 µM. The inhibition is the drop in the measured response relative to a control, in per cent. High values mean a strong effect, low ones a weak effect. For the compound `COc1cccc(OCC(=O)N2CC(=O)Nc3ccccc32)c1`, the inhibition in experiment [2] was determined as 25%; in experiment [3], 0%. Take `COc1ccc(/C=C(/C(=O)N2CC(=O)Nc3ccccc32)c2ccccc2)cc1`: the inhibition in experiment [2] is greater than 50%; in experiment [3], greater than 25%. For the same compound, the IC50 in experiment [4] was 22 µM; in experiment [1], 26 µM. In the case of `O=C1CN(C(=O)C(c2ccccc2)c2ccccc2)c2ccccc2N1`, the inhibition is greater than 50% in experiment [2] and greater than 25% in experiment [3].

Turning to `O=C1CN(C(=O)CCc2ccccc2Cl)c2ccccc2N1`, the inhibition was found to be 25% in experiment [2] and 0% in experiment [3]. In the same order, the values of `CCc1ccc(CC(=O)N2CC(=O)Nc3ccccc32)cc1` are 0% and 0%. In the same order, the values of `CC(C)Sc1ccccc1C(=O)N1CC(=O)Nc2ccccc21` are 25% and 0%. With `N#Cc1cccc(-c2cncc(C(=O)N3CC(=O)Nc4ccccc43)c2)c1`, the IC50 in experiment [4] was 12 µM; in experiment [1] it was 44 µM.

As to `CSc1ccc(CC(=O)N2CC(=O)Nc3ccccc32)cc1`, the inhibition in experiment [2] and in experiment [3] was 0% throughout. As for `COC(=O)c1ccc(/C=C(/C(=O)N2CC(=O)Nc3ccccc32)c2ccccc2)cc1`, the IC50 in experiment [4] and in experiment [1] was 25 µM throughout. `O=C1CN(C(=O)c2cncc(-c3cccc(O)c3)c2)c2ccccc2N1` came in with an IC50 in experiment [1] of 29 µM. As to `O=C1CN(C(=O)c2sc3ccccc3c2Cl)c2ccccc2N1`, the inhibition in experiment [2] was determined as 25%; in experiment [3], 0%. In the same order, the values of `O=C1CN(C(=O)Cc2cccc3ccccc23)c2ccccc2N1` are greater than 50% and greater than 25%.

For the compound `COc1ccc(/C=C(/C(=O)N2CC(=O)Nc3cc(OC)ccc32)c2ccccc2)cc1`, the results for the IC50 in experiment [4] and in experiment [1] were greater than 50 µM and 34 µM, respectively. `COc1cccc(-c2cncc(C(=O)N3CC(=O)Nc4ccccc43)c2)c1`: in experiment [1], the IC50 was 25 µM. Still for that read-out and setting: the figure for `O=C1CN(C(=O)c2cncc(-c3ccc(Cl)cc3)c2)c2ccccc2N1` is 49 µM. For `COc1ccc(/C=C(/C(=O)N2CC(=O)Nc3ccccc32)c2ccc(OC)c(OC)c2)cc1`, the values for the IC50 in experiment [4] and in experiment [1] were 26 µM and 18 µM, respectively. For `NC(=O)c1ccc(/C=C(/C(=O)N2CC(=O)Nc3ccccc32)c2ccccc2)cc1` the same measures were 49 µM and 46 µM. In the same order, the values of `COc1ccc(/C(=C\c2ccncc2)C(=O)N2CC(=O)Nc3ccccc32)cc1` are 5 µM and 25 µM. In the same order, the values of `COc1ccc(/C=C(/C(=O)N2CC(=O)Nc3ccccc32)c2ccc(OC)cc2)cc1` are 13 µM and 16 µM. `COc1cc(NCc2ccccc2)cc(C(=O)N2CC(=O)Nc3ccccc32)c1`: the IC50 in experiment [1] was greater than 50 µM. For `CS(=O)(=O)N(CC(=O)N1CC(=O)Nc2ccccc21)c1ccccc1F`, the inhibition in experiment [2] and in experiment [3] was 0% throughout.

As for `O=C1CN(C(=O)c2cncc(-c3ccc(F)cc3)c2)c2ccccc2N1`, the IC50 in experiment [1] was determined as 47 µM. For `COc1ccc(/C=C(/C(=O)N2CC(=O)Nc3cc(OC)ccc32)c2ccc(OC)cc2)cc1`, the IC50 in experiment [4] and in experiment [1] was 13 µM in each case.

On to `COc1ccc(/C=C(/C(=O)N2CC(=O)Nc3ccccc32)c2ccc(OC)cc2OC)cc1`, for which the IC50 in experiment [4] and in experiment [1] was greater than 50 µM throughout.

On to `O=C1CN(C(=O)c2cccc(C(F)(F)F)c2)c2ccccc2N1`, for which the figures for the inhibition in experiment [2] and in experiment [3] were greater than 50% and greater than 25%, respectively.

For `COc1ccc(/C=C(/C(=O)Nc2c(C)noc2C)c2ccc(OC)cc2)cc1`, the IC50 is 12 µM in experiment [4] and 44 µM in experiment [1]. With `CSc1ccc(Cl)c(C(=O)N2CC(=O)Nc3ccccc32)c1`, the inhibition in experiment [2] and in experiment [3] was 0% in each case. Consider `CC(=O)Nc1cccc(/C=C(/C(=O)N2CC(=O)Nc3ccccc32)c2ccccc2)c1`, for which the IC50 is 10 µM in experiment [4] and 40 µM in experiment [1]. Turning to `COc1cc(C(=O)N2CC(=O)Nc3ccccc32)cc(-c2ccccc2)c1`, the IC50 in experiment [1] came out at 13 µM. For the compound `Cc1cccc(OCCC(=O)N2CC(=O)Nc3ccccc32)c1`, the inhibition was 25% in experiment [2] and 0% in experiment [3]. As for `COc1ccc(CC(=O)N2CC(=O)Nc3ccccc32)cc1OC`, the inhibition came to 25% in experiment [2] and 0% in experiment [3]. Regarding `O=C1CN(C(=O)Cc2ccc(Cl)cc2)c2ccccc2N1`, the inhibition in experiment [2] is 25%; in experiment [3] it was 0%. For `O=C1CN(C(=O)c2cc(-c3cccc(Cl)c3)[nH]n2)c2ccccc2N1`, the inhibition in experiment [2] and in experiment [3] was 0% in each case. `Cc1ccc(CC(=O)N2CC(=O)Nc3ccccc32)cc1`: the inhibition in experiment [2] and in experiment [3] was 0% each time. Turning to `COc1ccc(/C=C(/C(=O)N2CC(=O)Nc3ccccc32)c2cccs2)cc1`, the IC50 is 23 µM in experiment [4] and 13 µM in experiment [1]. As to `O=C1CN(C(=O)c2cncc(-c3ccccc3)c2)c2ccccc2N1`, the IC50 in experiment [4] turned out to be 20 µM; in experiment [1] it was 26 µM. Regarding `CSc1ccccc1C(=O)N1CC(=O)Nc2ccccc21`, the results for the inhibition in experiment [2] and in experiment [3] were greater than 50% and greater than 25%, respectively. For the compound `CCn1ccc(C(=O)N2CC(=O)Nc3ccccc32)n1`, the inhibition in experiment [2] is greater than 50%; in experiment [3] it was greater than 25%. In the same order, the values of `O=C1CN(C(=O)Cc2cccs2)c2ccccc2N1` are 0% and 0%.

`Cc1ccc(-c2cc(C(=O)N3CC(=O)Nc4ccccc43)[nH]n2)cc1`: the inhibition in experiment [2] and in experiment [3] was 0% in each case. Turning to `COc1ccc(/C=C(/C(=O)N2CC(=O)Nc3ccccc32)c2ccc(NC(C)=O)cc2)cc1`, the IC50 in experiment [4] worked out at 24 µM; in experiment [1] it was 13 µM. Consider `COc1ccc(/C=C(/C(=O)N2CC(=O)Nc3ccccc32)c2ccc(C)c(C)c2)cc1`, for which the IC50 in experiment [4] was greater than 50 µM; in experiment [1], 14 µM.

Turning to `O=C1CN(C(=O)c2cccc(F)c2)c2ccccc2N1`, the values for the inhibition in experiment [2] and in experiment [3] were 25% and 0%, respectively.
